Measured values: patent publication US10844023B2 (Washington University, priority 2017, dated 2020)

Tested on: Mfn2 null MEFs
Assay: Mitochondrial elongation (aspect ratio) fusogenicity assay
Format: cell-based, mouse
Parameters: % long compare to B: dose or concentration left out as unconfirmed
Settings: for % long compare to B: mitochondrial elongation relative to Cpd B (B01 = 100), compound overnight as printed (FIG. 48); for % long compare to B / Aspect ratio (MEAN ± SEM): Mfn2 null MEFs; for Aspect ratio (MEAN ± SEM): overnight, treatment with 1 μM compound (footnote); for Fusogenicity Rank: rank order of aspect ratio among 44 soluble library compounds
Excerpt: A cultured murine embryonic fibroblast assay system was used in which mitochondrial elongation (an increase in aspect ratio) reflects enhanced mitochondrial fusion.
A pharmacophore model was generated based on the interactions of HR1 and HR2 domains in the calculated structural model of Mfn2 in the closed conformation. The key features included hydrophobic interactions involving Mfn2 HR1: Val372 and Met376, and aromatic interactions and hydrogen bonding involving Mfn2 HR1 His380. […] A library comprising ˜14 million commercially available compounds was prepared in silico and evaluated using PHASE to fit these criteria. Top ranked hits were clustered, and filtered based on pharmacological properties using Qikprop. The top 55 (see TABLE 4) commercially available small molecules conforming to the model were selected for functional screening and purchased in 1 mg aliquots. […] Images were acquired by confocal microscopy. Each compound was scored for fusogenicity (see e.g., FIG. 24A) and % cell death (see e.g., FIG. 24B).
Cells were excited with 408 nm (Hoechst), […] (MitoTracker Green and Calcein AM, GFP), or 637 nm (TMRE, MitoTracker Orange, Ethidium homodimer-1, and AF594-Dextran) laser diodes. For mitochondrial elongation studies mitochondrial aspect ratio (long axis/short axis) was calculated using automated edge detection and Image J software. Mitochondrial depolarization was calculated as % of green mitochondria visualized on MitoTracker Green and TMRE merged images, expressed as green/(green+yellow mitochondria)×100.

| Compound | % long compare to B [%] | Aspect ratio (MEAN ± SEM) | Fusogenicity Rank |
| --- | --- | --- | --- |
| NC(=O)c1c(NC(=O)CSc2nnc(-c3cccnc3)n2-c2ccccc2)sc2c1CCC2 [1-F11, 2-(2-{[4-phenyl-5-(pyridin-3-yl)-4H-1,2,4-triazol-3-yl]sulfanyl]acet-amido)-4H,5H,6H-cyclopenta[b]-thiophene-3-carboxamide] | 13 | – | – |
| COc1ccc2c(c1)C1(SCCN1C(=O)c1ccccc1C)C(=O)N2Cc1cccc(C(F)(F)F)c1 (stereo not drawn) [D05, 5-methoxy-3′-(2-methylbenzoyl)-1-{[3-(trifluoromethyl)-phenyl]methyl}-1,2-dihydrospiro[indole-3,2′-[1,3]thiazolidine]-2-one] | 4 | – | – |
| C=CCn1c(SCC(=O)Nc2sc3c(c2C(N)=O)CCC3)nnc1C1CCCCC1 [1-E1, 2-(2-{[5-cyclohexyl-4-(prop-2-en-1-yl)-4H-1,2,4-triazol-3-yl}sulfanyl]acetamido)-4H,5H,6H-cyclopenta[b]thio-phene-3-carboxamide] | 38 | – | – |
| NC(=O)c1c(NC(=O)CSc2nnc(Cc3cccs3)n2-c2ccccc2)sc2c1CCC2 [1-C8, 2-[2-({4-phenyl-5-[(thiophen-2-yl)methyl]-4H-1,2,4-triazol-3-yl}sulfanyl)acetamido]-4H,5H,6H-cyclopenta[b]thio-phene-3-carboxamide] | 35 | – | – |
| Cc1cc(C)n2nc(C(=O)N3C[C@@H]4CCN(Cc5nccn5C)[C@@H]4C3)cc2n1 [D08, 2-{[(3aS,6aS)-5-{5,7-dimethylpyrazolo[1,5-a]pyrimidine-2-carbonyl}-octahydropyrrolo[3,4-b]pyrrol-1-yl]methyl}-1-methyl-1H-imidazole] | 114 | – | – |
| CC(Sc1nccn1Cc1ccccc1)C(=O)Nc1sc2c(c1C(N)=O)CCC2 (stereo not drawn) [1-G7, 2-{2-[(1-benzyl-1H-imidazol-2-yl)sulfanyl]propanamido}-4H,5H,6H-cyclopenta[b]thio-phene-3-carboxamide] | 3 | – | – |
| COc1ccc(SC(C)C(=O)Nc2cc[nH]n2)cc1 (stereo not drawn) [C03, 2-[(4-methoxyphenyl)sulfa-nyl]-N-(1H-pyrazol-3-yl)propanamide] | 10 | – | – |
| CCC(C)NC(=O)c1ccccc1NC(=O)C(C)Sc1ccc(C)cc1 (stereo not drawn) [E04, N-(butan-2-yl)-2-{2-[(4-methyl-phenyl)sulfanyl]pro-panamido}benzamide] | 1 | – | – |
| CCC(C)C1N=C2c3ccccc3N=C(SC(C)C(=O)Nc3cc(OC)cc(OC)c3)N2C1=O (stereo not drawn) [C04, 2-{[2-(butan-2-yl)-3-oxo-2H,3H-imidazo[1,2-c]quinazolin-5-yl]sulfanyl}-N-(3,5-dimethoxyphenyl)pro-panamide] | −1 | – | – |
| Cc1nnc(SCC(=O)Nc2sc3c(c2C(N)=O)CCC3)n1Cc1ccccc1 [1-C2, 2-{2-[(4-benzyl-5-methyl-4H-1,2,4-triazol-3-yl)sulfanyl]acetamido}-4H,5H,6H-cyclopenta[b]thiophene-3-carboxamide] | −18 | – | – |
| Cc1occc1-c1nnc(SC(C)C(=O)Nc2sc3c(c2C(N)=O)CCC3)n1-c1ccccc1 (stereo not drawn) [1-B8, 2-(2-{[5-(2-methylfuran-3-yl)-4-phenyl-4H-1,2,4-triazol-3-yl]sulfanyl}propanamido)-4H,5H,6H-cyclopenta[b]thio-phene-3-carboxamide] | 20 | – | – |
| CCC(C)C1N=C2c3ccccc3N=C(SC(C)C(=O)Nc3cc(OC)cc(OC)c3)N2C1=O (stereo not drawn) [drawing 234, 2-{[2-(butan-2-yl)-3-oxo-2H,3H-imidazo[1,2-c]quinazolin-5-yl]sulfanyl}-N-(3,5-dimethoxyphenyl)propanamide] | – | 3.2 ± 0.3 | 32 |
| Cn1c(Cc2cccs2)nnc1SCC(=O)Nc1sc2c(c1C(N)=O)CCC2 [1-C11, 2-[2-({4-methyl-5-[(thiophen-2-yl)methyl]-4H-1,2,4-triazol-3-yl}sulfanyl)acetamido]-4H,5H,6H-cyclopenta[b]thio-phene-3-carboxamide] | 1 | – | – |
| CCCc1noc(C(C)Sc2nc3cc(C)ccc3[nH]2)n1 (stereo not drawn) [drawing 231, 5-methyl-2-{[1-(3-propyl-1,2,4-oxadiazol-5-yl)ethyl]sulfanyl}-1H-1,3-benzodiazole] | – | 4.0 ± 1.0 | 17 |
| Cc1occc1-c1nnc(SC(C)C(=O)Nc2sc3c(c2C(N)=O)CCC3)n1C (stereo not drawn) [1-C9, 2-(2-{[4-methyl-5-(2-methylfuran-3-yl)-4H-1,2,4-triazol-3-yl]sulfanyl}propanamido)-4H,5H,6H-cyclopenta[b]thio-phene-3-carboxamide] | −3 | – | – |
| Cc1ccc(-c2noc(CSCCCC(=O)Nc3c(C)cccc3C)n2)cc1F [drawing 209, N-(2,6-dimethylphenyl)-4-({[3-(3-fluoro-4-methylphenyl)-1,2,4-oxadiazol-5-yl]methyl}sulfanyl)butanamide] | – | 3.9 ± 0.5 | 20 |
| CCn1c(Cc2ccccc2)nnc1SC(C)C(=O)Nc1sc2c(c1C(N)=O)CCC2 (stereo not drawn) [1-A8, 2-{2-[(5-benzyl-4-ethyl-4H-1,2,4-triazol-3-yl)sulfanyl]-propanamido}-4H,5H,6H-cyclopenta[b]thiophene-3-carboxamide] | 47 | – | – |
| Cc1ccc2c(c1)SC(C(=O)NCc1ccc(N3CCCN(C)CC3)nc1)C2 (stereo not drawn) [drawing 212, 6-methyl-N-{[6-(4-methyl-1,4-diazepan-1-yl)pyridin-3-yl]methyl}-2,3-dihydro-1-benzothiophene-2-carboxamide] | – | 4.0 ± 0.3 | 18 |
| O=C1CC(SCCc2nc3ccccc3[nH]2)C(=O)N1c1cccc(F)c1 (stereo not drawn) [D09, 3-{[2-(1H-1,3-benzodiazol-2-yl)ethyl]sulfanyl}-1-(3-fluorophenyl)pyrro-lidine-2,5-dione] | 73 | – | – |
| NC(=O)c1c(NC(=O)CSc2nnc(-c3ccncc3)n2-c2ccc(F)cc2)sc2c1CCC2 [1-H5, 2-(2-{[4-(4-fluorophenyl)-5-(pyridin-4-yl)-4H-1,2,4-triazol-3-yl]sulfanyl]acetamido)-4H,5H,6H-cyclopenta[b]thio-phene-3-carboxamide] | 23 | – | – |
| O=C(Nc1cc(CSCCOC(=O)C2C3CCCCC32)ccn1)C1C2CCCCC21 (stereo not drawn) [2-{[(2-{bicyclo[4.1.0]heptane-7-amido}pyridin-4-yl)methyl]sulfanyl}ethyl bicyclo[4.1.0]heptane-7-carboxylate] | – | 4.8 ± 1.0 | 10 |
| O=C(CSCc1ccc(F)cc1)N1CCc2c([nH]c3ccccc23)C1c1ccc(Cl)cc1 (stereo not drawn) [drawing 202, 1-[1-(4-chlorophenyl)-1H,2H,3H,4H,9H-pyrido[3,4-b]indol-2-yl]-2-{[(4-fluorophenyl)methyl]sulfanyl}ethan-1-one] | – | 4.7 ± 0.9 | 11 |
| Cc1nc[nH]c1CSCCn1cnc2cn(C)nc2c1=O [E03, 2-methyl-6-(2-{[(4-methyl-1H-imidazol-5-yl)methyl]sulfanyl}-ethyl)-2H,6H,7H-pyrazolo[4,3-d]pyrimidin-7-one] | −10 | – | – |
| CC1CCc2c(sc(NC(=O)CSc3nncn3-c3ccccc3)c2C(N)=O)C1 (stereo not drawn) [1-C3, 6-methyl-2-{2-[(4-phenyl-4H-1,2,4-triazol-3-yl)sulfanyl]acetamido}-4,5,6,7-tetrahydro-1-benzothiophene-3-carboxamide] | −9 | – | – |
| CC1CCc2c(sc(NC(=O)CSc3nnc(C4CC4)n3Cc3ccccc3)c2C(N)=O)C1 (stereo not drawn) [1-E3, 2-{2-[(4-benzyl-5-cyclopropyl-4H-1,2,4-triazol-3-yl)sulfanyl]acetamido}-6-methyl-4,5,6,7-tetrahydro-1-benzothiophene-3-carboxamide] | 11 | – | – |
| Cn1c(CC2CCS(=O)(=O)C2)nnc1SCC(=O)Nc1sc2c(c1C(N)=O)CCC2 (stereo not drawn) [1-D9, 2-[2-({5-[(1,1-dioxo-1λ^6-thiolan-3-yl)methyl]-4-methyl-4H-1,2,4-triazol-3-yl}sulfanyl)acetamido]-4H,5H,6H-cyclopenta-[b]thiophene-3-carboxamide] | 5 | – | – |
| COc1ccc(-n2cnnc2SCC(=O)Nc2sc3c(c2C(N)=O)CCC3)cc1 [1-D2, 2-(2-{[4-(4-methoxyphenyl)-4H-1,2,4-triazol-3-yl]sul-fanyl}acetamido)-4H,5H,6H-cyclopenta[b]thiophene-3-carboxamide] | 128 | – | – |
| COCCNC(=O)c1c(NC(=O)CSc2nnc(C3CC3)n2C)sc2c1CCCC2 [1-B6, 2-{2-[(5-cyclopropyl-4-methyl-4H-1,2,4-triazol-3-yl)sulfanyl]acetamido}-N-(2-methoxyethyl)-4,5,6,7-tetrahydro-1-benzothiophene-3-carboxamide] | 68 | – | – |
| CC(C)C1=CC2C(=O)NC(CSCC(=O)NCc3ccccn3)=NC2S1 (stereo not drawn) [E02, 2-({[4-oxo-6-(propan-2-yl)-3H,4H,4aH,7aH-thieno[2,3-d]pyrimidin-2-yl]methyl}sulfanyl)-N-[(pyridin-2-yl)methyl]acetamide] | 11 | – | – |
| O=C(NCCSCc1ccc(Br)s1)C1CCCN(C(=O)c2cccs2)C1 (stereo not drawn) [B09, N-(2-{[(5-bromothiophen-2-yl)methyl]sulfanyl}-ethyl)-1-(thiophene-2-carbonyl)piperidine-3-carboxamide] | 36 | – | – |
